Experimental data from US20240226026A1, “BRANCHED TAIL LIPID COMPOUNDS AND COMPOSITIONS FOR INTRACELLULAR DELIVERY OF THERAPEUTIC AGENTS” (ModernaTX, Inc., priority 2021, published 2024).

tested on: not listed separately; assay: Encapsulation efficiency (% EE) of lipid nanoparticles; format: physicochemical; conditions: Table 2a; nanoparticles comprising the lipid
Experimental: For nanoparticle compositions including an RNA, a QUANT-IT™ RIBOGREEN® RNA assay (Invitrogen Corporation Carlsbad, CA) can be used to evaluate the encapsulation of an RNA by the nanoparticle composition. The samples are diluted to a concentration of approximately 5 μg/mL in a TE buffer solution (10 mM Tris-HCl, 1 mM EDTA, pH 7.5). 50 μL of the diluted samples are transferred to a polystyrene 96 well plate and either 50 μL of TE buffer or 50 μL of a 2% Triton X-100 solution is added to the wells. The plate is incubated at a temperature of 37° C. for 15 minutes. The RIBOGREEN® reagent is diluted 1:100 in TE buffer, and 100 μL of this solution is added to each well. The fluorescence intensity can be measured using a fluorescence plate reader (Wallac Victor 1420 Multilablel Counter; Perkin Elmer, Waltham, MA) at an excitation wavelength of, for example, about 480 nm and an emission wavelength of, for example, about 520 nm. The fluorescence values of the reagent blank are subtracted from that of each of the samples and the percentage of free RNA is determined by dividing the fluorescence intensity of the intact sample (without addition of Triton X-100) by the fluorescence value of the disrupted sample (caused by the addition of Triton X-100).
The efficiency of encapsulation of a therapeutic and/or prophylactic describes the amount of therapeutic and/or prophylactic that is encapsulated or otherwise associated with a lipid nanoparticle (e.g., an empty LNP or a loaded LNP) after preparation, relative to the initial amount provided. The encapsulation efficiency is desired to be high (e.g., close to 100%). The encapsulation efficiency may be measured, for example, by comparing the amount of therapeutic and/or prophylactic in a solution containing a loaded LNP before and after breaking up the loaded LNP with one or more organic solvents or detergents. Fluorescence may be used to measure the amount of free therapeutic and/or prophylactic (e.g., RNA) in a solution. For the loaded LNPs formulated with lipids of the disclosure, the encapsulation efficiency of a therapeutic and/or prophylactic is at least 50%, for example 50%, 55%, 60%, 65%, 70%, 75%, 80%, 85%, 90%, 91%, 92%, 93%, 94%, 95%, 96%, 97%, 98%, 99%, or 100%. In some embodiments, the encapsulation efficiency is at least 80%. In some embodiments, the encapsulation efficiency is at least 90%. In some embodiments, the encapsulation efficiency of the therapeutic and/or prophylactic agent is between 80% and 100%.
(§1) Lipid nanoparticles (e.g., empty LNPs or loaded LNPs) including DSPC as a phospholipid, cholesterol as a structural lipid, PL-II (e.g., PEG-1) as a PEG lipid, and a lipid according to Formula (I-1), (I), (I-A), (I-A1), (I-A2), (I-A3), or (I-A4) were prepared. In some embodiments, the lipid nanoparticles further included rhodamine-DOPE as a fluorescent lipid. Tables 2a, 2b, and 3 summarize the characteristics of the formulations.

| % EE | Structure (SMILES) |
| --- | --- |
| 80.9% | CCCCCC(CCCCC)CCOC(=O)CCCCCCCN(CCCCCCCC(=O)OCCC(CCCC)CCCC)CCCNS(=O)(=O)CC [Compound 12] |
| 61.0% | CCCCCC(CCCCC)CCOC(=O)CCCCCCCN(CCCCCCCC(=O)OCCC(CCCC)CCCC)CCCNS(=O)(=O)Cc1ccon1 [Compound 13] |

same assay, conditions: Table 2b; nanoparticles comprising the lipid

| % EE | Structure (SMILES) |
| --- | --- |
| 45.9% | CCCCCCCCC(CCCCCCCC)OC(=O)CCCCCCCN(CCCCCCCC(=O)OCCC(CCCC)CCCC)CCCNC(=O)C1(C)CC1 [Compound 4] |
| 73.4% | CCCCCC(CCCCC)CCOC(=O)CCCCCCCN(CCCCCCCC(=O)OCCC(CCCC)CCCC)CCCNS(=O)(=O)Cc1ccon1 [Compound 13] |

same assay, conditions: Table 3; nanoparticles comprising the lipid

| % EE | Structure (SMILES) |
| --- | --- |
| 54.1% | CCCCCCCCC(CCCCCCCC)OC(=O)CCCCCCCN(CCCCCCCC(=O)OCCC(CCCC)CCCC)CCCNC(=O)C1(C)CC1 [Compound 4] |
| 94.1% | CCCCCC(CCCCC)CCOC(=O)CCCCCCCN(CCCCCCCC(=O)OCCC(CCCC)CCCC)CCCNS(=O)(=O)CC [Compound 12] |
| 96.1% | CCCCCC(CCCCC)CCOC(=O)CCCCCCCN(CCCCCCCC(=O)OCCC(CCCC)CCCC)CCCNS(=O)(=O)Cc1ccon1 [Compound 13] |

tested on: CD-1 mice; assay: Expression of hEPO induced by LNPs (mRNA encoding hEPO) administered to mice; format: in vivo; conditions: Table 4a, serum, 6 h after intravenous injection
Experimental: In some embodiments, hEPO concentrations were determined using an […] (ELLA) Simple Plex Assay (ProteinSimple) with a Human Erythroprotein cartridge. Standards for this assay are calibrated according to the 2. IRP WHO preparation. Nanoparticle compositions including mRNA are useful in the evaluation of the efficacy and usefulness of various formulations for the delivery of therapeutic and/or prophylactics. Higher levels of protein expression induced by administration of a composition including an mRNA will be indicative of higher mRNA translation and/or nanoparticle composition mRNA delivery efficiencies. As the non-RNA components are not thought to affect translational machineries themselves, a higher level of protein expression is likely indicative of a higher efficiency of delivery of the therapeutic and/or prophylactic by a given nanoparticle composition relative to other nanoparticle compositions or the absence thereof.
To assess potency of expression of lipids of the disclosure, the protein expression (hEPO) following administration of a nanoparticle comprising a lipid of the disclosure (e.g., a loaded LNP) to mice was measured.
Lipid nanoparticles (LNPs) including DSPC as a phospholipid, cholesterol as a structural lipid, PL-II (e.g., PEG-1) as a PEG lipid, a lipid according to Formula (I-1), (I), (I-A), (I-A1), (I-A2), (I-A3), or (I-A4), and an mRNA encoding hEPO were intravenously administered to CD-1 mice. The concentration of hEPO in serum was tested at 6 h after injection.

| Structure (SMILES) | Avg. hEPO Concentration (mIU/mL) ± Avg. SD |
| --- | --- |
| CCCCCC(CCCCC)CCOC(=O)CCCCCCCN(CCCCCCCC(=O)OCCC(CCCC)CCCC)CCCNS(=O)(=O)CC [Compound 12] | 5.83E+06 ± 1.13E+05 mIU/mL |
| CCCCCC(CCCCC)CCOC(=O)CCCCCCCN(CCCCCCCC(=O)OCCC(CCCC)CCCC)CCCNS(=O)(=O)Cc1ccon1 [Compound 13] | 1.41E+07 ± 2.72E+05 mIU/mL |

same assay, conditions: Table 4a, serum, 6 h after intravenous injection, ELLA Simple Plex Assay

| Structure (SMILES) | Avg. hEPO Concentration (mIU/mL)* ± Avg. SD |
| --- | --- |
| CCCCCCCCC(CCCCCCCC)OC(=O)CCCCCCCN(CCCCCCCC(=O)OCCC(CCCC)CCCC)CCCNC(=O)C1(C)CC1 [Compound 4] | 1.04E+07 ± 2.85E+05 mIU/mL |

tested on: not listed separately; assay: Apparent pKa of lipid nanoparticles; format: physicochemical; conditions: Table 2a; nanoparticles comprising the lipid

| Apparent pKa | Structure (SMILES) |
| --- | --- |
| 6.669 | CCCCCC(CCCCC)CCOC(=O)CCCCCCCN(CCCCCCCC(=O)OCCC(CCCC)CCCC)CCCNS(=O)(=O)CC [Compound 12] |
| 6.688 | CCCCCC(CCCCC)CCOC(=O)CCCCCCCN(CCCCCCCC(=O)OCCC(CCCC)CCCC)CCCNS(=O)(=O)Cc1ccon1 [Compound 13] |

same assay, conditions: Table 2b; 95% confidence interval

| Apparent pKa 95% CI | Structure (SMILES) |
| --- | --- |
| 6.676 to 6.749 | CCCCCCCCC(CCCCCCCC)OC(=O)CCCCCCCN(CCCCCCCC(=O)OCCC(CCCC)CCCC)CCCNC(=O)C1(C)CC1 [Compound 4] |
| 6.641 to 6.731 | CCCCCC(CCCCC)CCOC(=O)CCCCCCCN(CCCCCCCC(=O)OCCC(CCCC)CCCC)CCCNS(=O)(=O)Cc1ccon1 [Compound 13] |

tested on: not listed separately; assay: Particle size (diameter) and polydispersity index of lipid nanoparticles; format: physicochemical; conditions: Table 2a; nanoparticles comprising the lipid
Experimental: A Zetasizer Nano ZS (Malvern Instruments Ltd, Malvern, Worcestershire, UK) can be used to determine the particle size, the polydispersity index (PDI) and the zeta potential of the nanoparticle compositions in 1×PBS in determining particle size and 15 mM PBS in determining zeta potential.
Lipid nanoparticles (e.g., empty LNPs or loaded LNPs) may be characterized by a variety of methods. For example, microscopy (e.g., transmission electron microscopy or scanning electron microscopy) may be used to examine the morphology and size distribution of a nanoparticle composition. Dynamic light scattering or potentiometry (e.g., potentiometric titrations) may be used to measure zeta potentials. Dynamic light scattering may also be utilized to determine particle sizes. Instruments such as the Zetasizer Nano ZS (Malvern Instruments Ltd, Malvern, Worcestershire, UK) may also be used to measure multiple characteristics of a nanoparticle composition, such as particle size, polydispersity index, and zeta potential.
as §1

| PDI | Structure (SMILES) |
| --- | --- |
| 0.248 | CCCCCC(CCCCC)CCOC(=O)CCCCCCCN(CCCCCCCC(=O)OCCC(CCCC)CCCC)CCCNS(=O)(=O)CC [Compound 12] |
| 0.205 | CCCCCC(CCCCC)CCOC(=O)CCCCCCCN(CCCCCCCC(=O)OCCC(CCCC)CCCC)CCCNS(=O)(=O)Cc1ccon1 [Compound 13] |

same assay, conditions: Table 2a; nanoparticles comprising the lipid, DSPC, cholesterol, PEG lipid

| Diameter (nm) | Structure (SMILES) |
| --- | --- |
| 120.2 nm | CCCCCC(CCCCC)CCOC(=O)CCCCCCCN(CCCCCCCC(=O)OCCC(CCCC)CCCC)CCCNS(=O)(=O)CC [Compound 12] |
| 109.5 nm | CCCCCC(CCCCC)CCOC(=O)CCCCCCCN(CCCCCCCC(=O)OCCC(CCCC)CCCC)CCCNS(=O)(=O)Cc1ccon1 [Compound 13] |

same assay, conditions: Table 2b; nanoparticles comprising the lipid

| Diameter (nm) | PDI | Structure (SMILES) |
| --- | --- | --- |
| 94.5 nm | 0.198 | CCCCCCCCC(CCCCCCCC)OC(=O)CCCCCCCN(CCCCCCCC(=O)OCCC(CCCC)CCCC)CCCNC(=O)C1(C)CC1 [Compound 4] |
| 98.5 nm | 0.164 | CCCCCC(CCCCC)CCOC(=O)CCCCCCCN(CCCCCCCC(=O)OCCC(CCCC)CCCC)CCCNS(=O)(=O)Cc1ccon1 [Compound 13] |

same assay, conditions: Table 3; nanoparticles comprising the lipid

| Diameter (nm) | PDI | Structure (SMILES) |
| --- | --- | --- |
| 84.6 nm | 0.194 | CCCCCCCCC(CCCCCCCC)OC(=O)CCCCCCCN(CCCCCCCC(=O)OCCC(CCCC)CCCC)CCCNC(=O)C1(C)CC1 [Compound 4] |
| 109.2 nm | 0.155 | CCCCCC(CCCCC)CCOC(=O)CCCCCCCN(CCCCCCCC(=O)OCCC(CCCC)CCCC)CCCNS(=O)(=O)CC [Compound 12] |
| 76.1 nm | 0.118 | CCCCCC(CCCCC)CCOC(=O)CCCCCCCN(CCCCCCCC(=O)OCCC(CCCC)CCCC)CCCNS(=O)(=O)Cc1ccon1 [Compound 13] |

tested on: not listed separately; assay: Lipid nanoparticle surface hydrophobicity by Generalized Polarization by Laurdan (N-GP); format: physicochemical; conditions: Table 2a; Laurdan; higher N-GP indicates a less polar surface
Source text: Surface hydrophobicity of nanoparticles of the disclosure can be measured by Generalized Polarization by Laurdan (GPL). In this method, Laurdan, a fluorescent aminonaphthalene ketone lipid, is post-inserted into the nanoparticle surface and the fluorescence spectrum of Laurdan is collected to determine the normalized Generalized Polarization (N-GP). In some embodiments, nanoparticles formulated with lipids of the disclosure have a surface hydrophobicity expressed as N-GP of between about 0.5 and about 1.5. For example, in some embodiments, nanoparticles formulated with lipids of the disclosure have a surface hydrophobicity expressed as N-GP of about 0.5, about 0.6, about 0.7, about 0.8, about 0.9, about 1.0, about 1.1, about 1.2, about 1.3, about 1.4, or about 1.5. In some embodiments, nanoparticles formulated with lipids of the disclosure have a surface hydrophobicity expressed as N-GP of about 1.0 or about 1.1.

| Lipid nanoparticle surface hydrophobicity (N-GP*) | Structure (SMILES) |
| --- | --- |
| 1.04 | CCCCCC(CCCCC)CCOC(=O)CCCCCCCN(CCCCCCCC(=O)OCCC(CCCC)CCCC)CCCNS(=O)(=O)CC [Compound 12] |
| 1.08 | CCCCCC(CCCCC)CCOC(=O)CCCCCCCN(CCCCCCCC(=O)OCCC(CCCC)CCCC)CCCNS(=O)(=O)Cc1ccon1 [Compound 13] |

same assay, conditions: Table 2b; nanoparticles comprising the lipid

| LNP surface hydrophobicity (N-GP*) | Structure (SMILES) |
| --- | --- |
| 1.05 | CCCCCCCCC(CCCCCCCC)OC(=O)CCCCCCCN(CCCCCCCC(=O)OCCC(CCCC)CCCC)CCCNC(=O)C1(C)CC1 [Compound 4] |
| 1.09 | CCCCCC(CCCCC)CCOC(=O)CCCCCCCN(CCCCCCCC(=O)OCCC(CCCC)CCCC)CCCNS(=O)(=O)Cc1ccon1 [Compound 13] |
